Results reported in paper PMC3898987 (Bioorganic & Medicinal Chemistry, 2013).
Substitutions are numbered along the chain they refer to.

Tests used:
[1] = biological target: T1, 5-HT3AB receptor, 5-HT3B subunit Y143A (Homo sapiens, UniProt O95264+P46098, Y136A); experiment: cell-based
T1 sequence (P46098 24-478): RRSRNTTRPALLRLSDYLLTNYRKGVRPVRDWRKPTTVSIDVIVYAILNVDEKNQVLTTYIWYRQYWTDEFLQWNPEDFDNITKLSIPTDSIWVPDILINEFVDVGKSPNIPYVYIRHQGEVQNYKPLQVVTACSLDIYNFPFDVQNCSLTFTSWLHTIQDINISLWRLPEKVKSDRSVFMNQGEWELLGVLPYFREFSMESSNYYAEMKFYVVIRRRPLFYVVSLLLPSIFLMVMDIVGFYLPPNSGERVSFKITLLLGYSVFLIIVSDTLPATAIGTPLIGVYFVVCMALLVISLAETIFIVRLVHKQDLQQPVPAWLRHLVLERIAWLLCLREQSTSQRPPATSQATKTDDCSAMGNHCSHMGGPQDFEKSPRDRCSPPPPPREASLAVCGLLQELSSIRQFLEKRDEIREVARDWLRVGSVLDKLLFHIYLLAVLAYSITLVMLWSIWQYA
T1 sequence (O95264 22-441 Y136A): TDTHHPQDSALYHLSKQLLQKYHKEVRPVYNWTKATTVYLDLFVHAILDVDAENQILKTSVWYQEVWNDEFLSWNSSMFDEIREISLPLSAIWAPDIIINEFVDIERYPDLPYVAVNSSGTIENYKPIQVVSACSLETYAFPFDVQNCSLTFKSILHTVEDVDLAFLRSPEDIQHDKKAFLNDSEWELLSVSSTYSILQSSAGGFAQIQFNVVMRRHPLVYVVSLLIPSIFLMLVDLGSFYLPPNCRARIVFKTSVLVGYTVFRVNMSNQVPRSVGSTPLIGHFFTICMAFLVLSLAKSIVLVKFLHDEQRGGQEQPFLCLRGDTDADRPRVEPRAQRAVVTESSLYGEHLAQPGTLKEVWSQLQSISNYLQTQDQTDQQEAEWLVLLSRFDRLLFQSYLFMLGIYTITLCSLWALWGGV
Experimental: (§1) For FlexStation assays, transfected cells were plated on 96-well plates and incubated 1–2 days before assay.
(§2) Fluorometric studies were undertaken using a FlexStation® (Molecular Devices, Sunnyvale, CA, USA) as previously described.[11]
(§3) Fluorescence was measured every 2 s for 200 s. […] Concentration–response and inhibition curves were obtained for each mutant, and the fluorescence values were normalized to the maximal response.

[2] = biological target: T2, 5-HT3AB receptor, 5-HT3B subunit I183A (Homo sapiens, UniProt O95264+P46098, I176A); experiment: cell-based
T2 sequence (P46098 24-478): T1 sequence (P46098 24-478)
T2 sequence (O95264 22-441 I176A): T1 sequence (O95264 22-441 Y136A) with A115Y, I155A
Experimental: as §1, §2, §3

WT 5-HT3A receptor = biological target: T3, WT 5-HT3A receptor (Homo sapiens, UniProt P46098); experiment: radioligand saturation binding, transfected HEK293 membranes; conditions: [3H]-palonosetron saturation, 4 °C, 24 h
T3 sequence (P46098 24-478): T1 sequence (P46098 24-478)
Experimental: (§4) Human embryonic kidney (HEK) 293 cells were cultured on 90 mm tissue culture plates at 37 °C and 7% CO2 in a humidified atmosphere. They were grown in DMEM:F12 (Dulbecco’s Modified Eagle’s Medium/Nutrient Mix F12 (1:1)) with GlutaMAX I™ containing 10% fetal calf serum and passaged when confluent. For radioligand binding studies, cells in 90 mm dishes were transfected at 60–70% confluency using polyethyleneimine and incubated for 3–4 days before use. For FlexStation assays, transfected cells were plated on 96-well plates and incubated 1–2 days before assay. […]
(§5) Eight-point binding assays were performed to produce saturation binding curves. […] Radioactive counts were measured using a Beckman LS6000SC liquid scintillation counter (Fullerton, California, USA).
(§6) Data were analyzed by iterative curve fitting using GraphPad Prism v5 (San Diego, CA) according to the following equation: B=Bmax[L]^n/kdn+[L]^n where B is the amount of bound radioligand, Bmax is the maximum specific binding at equilibrium, [L] is the concentration of radioligand, Kd is the equilibrium dissociation constant of the radioligand, and n is the Hill coefficient.

5-HT3A receptor F130A = biological target: T4, 5-HT3A receptor F130A (Homo sapiens, UniProt P46098, F125A); experiment: as above; conditions: [3H]-palonosetron saturation, 5-HT3A F130A, 4 °C, 24 h
T4 sequence (P46098 24-478 F125A): T1 sequence (P46098 24-478) with F102A
Experimental: as §4, §5, §6

5-HT3A receptor S163A = biological target: T5, 5-HT3A receptor S163A (Homo sapiens, UniProt P46098, S158A); experiment: as above; conditions: [3H]-palonosetron saturation, 5-HT3A S163A, 4 °C, 24 h
T5 sequence (P46098 24-478 S158A): T1 sequence (P46098 24-478) with S135A
Experimental: as §4, §5, §6

[3] = biological target: T1, 5-HT3AB receptor, 5-HT3B subunit Y143A; experiment: as above; conditions: [3H]-palonosetron saturation, 5-HT3AB with 5-HT3B Y143A, 4 °C, 24 h
Experimental: as §4, §5, §6

[4] = biological target: T2, 5-HT3AB receptor, 5-HT3B subunit I183A; experiment: as above; conditions: [3H]-palonosetron saturation, 5-HT3AB with 5-HT3B I183A, 4 °C, 24 h
Experimental: as §4, §5, §6

Q: Which results are given for `O=C1c2cccc3c2[C@H](CCC3)CN1[C@@H]1CN2CCC1CC2` [Palonosetron]?
A: IC50 [1]: 380 ± 50 pM; IC50 [2]: 340 ± 80 pM; Kd (WT 5-HT3A receptor): 320 ± 70 pM; Kd (5-HT3A receptor F130A): 670 ± 120 pM; Kd (5-HT3A receptor S163A): 300 ± 80 pM; Kd [3]: 180 ± 40 pM; Kd [4]: 230 ± 120 pM
